Bridges are numbered along the chain shown (N, C = ends). Where no end group is shown, it is not given here.
What was measured:
[1] = test system: murine, infection induced, severe, steroid-insensitive, neutrophilic, allergic airways disease model of asthma; assay: Airway hyper-responsiveness (Flexivent), Ovalbumin/C. muridarum steroid-insensitive asthma model; assay type: in vivo, BALB/c mice; conditions: Ova sensitized, C. muridarum infected mice; hBD-2 IN 5 mg/kg day 30, 32, 34; DEX IN 2 mg/kg day 32-34; vs Saline control
Procedure: Female 6-8 weeks old BALB/c mice were intraperitoneally (IP) sensitized to ovalbumin 50 μg with the adjuvant alum 1 mg in 200 μL 0.9% saline. Mice were intranasally (IN) challenged with Ova on day 12-13 and day 33-34 (10 μg in 50 μL sterile saline).

[2] = test system: murine house dust mite/Freunds complete adjuvant driven model of allergic asthma; assay: Total and differential cell counts in BALF, HDM asthma model (Example 2); assay type: in vivo, BALB/c mice
Procedure: Female 7-10 weeks old BALB/c mice were randomly allocated into 7 study groups one day prior to study start and subcutaneously (SC) sensitized to house dust mite (100 μg HDM in 200 μL saline plus Freunds complete adjuvant in 0.9% saline). Mice were then intranasally (IN) challenged with HDM on day 14 (HDM 25 μg in 50 μL of saline). […] The initial dose was administered 60 minutes prior to challenge, and the subsequent doses approximately 6 hours apart. Airway inflammation: At 48 hours post challenge, bronchoalveolar lavage was performed washing the lungs with 3 volumes of cold PBS (0.4; 0.3 and 0.3 mL, total 1 mL). Total and differential leucocyte cell counts were determined on an automated haematological analyser Sysmex XT-2000iV.

[3] = test system: IL-1β, TNF-α, IL-6, IL-10 and IFNγ in lung tissue homogenates; assay: Cytokine ELISA in lung tissue homogenates, HDM asthma model (Example 2); assay type: in vivo, BALB/c mice; conditions: vs HDM/vehicle
Procedure: Female 7-10 weeks old BALB/c mice were randomly allocated into 7 study groups one day prior to study start and subcutaneously (SC) sensitized to house dust mite (100 μg HDM in 200 μL saline plus Freunds complete adjuvant in 0.9% saline). Mice were then intranasally (IN) challenged with HDM on day 14 (HDM 25 μg in 50 μL of saline). […] The initial dose was administered 60 minutes prior to challenge, and the subsequent doses approximately 6 hours apart.
Lung sampling for cytokine analysis: After completion of every BAL, lungs were removed from the thorax, snap frozen in liquid nitrogen and stored frozen at −80 degrees Celsius until analysis of cytokine concentration of IL-1β, TNF-α, IL-6, IL-10 and IFNγ by ELISA.

[4] = Pharmacokinetics after subcutaneous or intravenous administration; assay type: in vivo, NMRI female mice; conditions: female, NMRI, mouse, hBD-2 1 mg/kg subcutaneous or intravenous
Procedure: To investigate and compare the pharmacokinetic profile of hBD-2 fused to the C-terminal (molecular weight 71.336 Da) or N-terminal (molecular weight 71.666 Da) of human serum albumin following subcutaneous or intravenous administration of a molar equivalent to 1 mg/kg hBD-2 (molecular weight […]) to NMRI female mice.
The animals were dosed 10 ml/kg of stock concentration of 1.65 mg/ml according to the individual body weight (300 μL for a 30 gram mouse). First blood sample was taken using a submandibular sampling method and the second following Isoflurane anaesthesia and euthanasia.

[5] = test system: microbiota of the intestine; assay: 16S microbiota analysis, prophylactic defensin treatment in high fat diet model (Example 10); assay type: in vivo, mice
From the text: Mice were housed in trios, 4 cages per group. Feed intake was registered daily just before lights were turned off at […]. Individual mice were subjected to experimental procedures in altered order both group and cage wise. Mice were kept at room temperature under a 12-hour light/dark cycle at SPF standard conditions. The treatment regime is described in FIG. 38. Mice were fed either a high fat diet (HFD) or a low fat (LF) control diet. The HFD contained 4 subgroups; 1 hBD2, 1 HD5, 1 hBD2/HD5 and 1 standard HFD without supplementation of defensins. Defensin concentration was 1.2 mg hBD2 per kg mouse per day. HD5 was given in equimolar concentration to hBD2. […] Microbial analyses were carried out to study the microbiota of the intestine. Longitudinal 16S characterization was conducted on 4 paired samples from 60 mice, 240 samples in total. Each mouse was sampled prior to diet change, 1 week post diet change, 4 weeks post diet change and at termination, thus ensuring a thorough characterization of the faecal microbiota as a result of defensin treatment.

[6] = test system: microbiota of the intestine; assay: 16S microbiota analysis, interventional defensin treatment in diet-induced obese mice (Example 11); assay type: in vivo; conditions: intervention
From the text: The experiment elucidates the effect of hBD2 and HD5 on the microbiota in diet-induced obese mice. A run-in period of 13 weeks where mice were fed a very HFD (60% energy from fat) preceded the intervention. Only mice meeting the criteria of a minimum of 12 gram weight gain (approximately 50% of initial bodyweight) during the run-in period were included in the final analyses. […] They were exposed to all experimental tests, but excluded from the analyses.
Before the intervention all mice were MR scanned. Cages of mice were allocated to experimental groups based on their fat mass. All subsequent measures were paired with data from the same mouse before the intervention. A LFD (low fat diet) reference group was running in parallel. As controls for the intervention 2 additional groups were included: 1 very HFD and 1 LFD. Experimental mice stayed on the very HFD during the intervention. The mice were on the experimental diet for 10 weeks. They were co-housed throughout the experiment, 4 mice per cage, 3 cages per group. All tests ran over 3 days, 1 cage per group per day.
Microbial analyses were carried out to study the microbiota of the intestine. Longitudinal 16S characterization was conducted on 4 paired samples from 60 mice, 240 samples in total. Each mouse was sampled prior to diet change, 1 week post diet change, 4 weeks post diet change and at termination, thus ensuring a thorough characterization of the faecal microbiota as a result of defensin treatment.

For “GIGDPVTCLKSGAICHPVFCPRRYKQIGTCGLPGTKCCKKP (disulfide 8-37, 15-30, 20-38 (inferred)) [hBD-2, human beta defensin 2]”, the “AHR (airway hyper-responsiveness)” value [1] was “completely normalized”, the “neutrophil counts in BALF” value ([2]; intranasal 0.4 mg/kg/day TID) was “significantly inhibited” and the “neutrophil counts in BALF” value ([2]; intranasal 1.7 mg/kg/day TID) was “significantly inhibited”. For the same sequence, the “IFN-γ level in lung tissue homogenates” value ([3]; intranasal) was “significant effects”, the “TNF-α level in lung tissue homogenates” value ([3]; intranasal) was “not significantly different from the control” and the “TNF-α level in lung tissue homogenates” value ([3]; oral (hBD2 0.4 mg/kg TID; dexamethasone 1 mg/kg BID)) was “significantly reduced”. The “IFN-γ level in lung tissue homogenates” value ([3]; oral (hBD-2 0.4 mg/kg TID; dexamethasone 1 mg/kg BID)) was “significant effects”, the half-life ([4]; blood) was 1 h and the CL renal ([4]; in vivo, read-out: renal clearance) was 10 mL/min. For the same sequence, the “effect on microbial presence / microbial abundance” value ([5]; 1.2 mg hBD2 per kg per day in feed, HD5 equimolar, combination 50% + 50%) was “affected primarily the microbial presence”, the “abundance of Barnesiella in the colon” value ([5]; prophylactic treatment, p<0.03) was “statistically significant increase” and the “abundance of Lactobacillaceae in colon” value ([5]; prophylactic treatment, p=0.1) was “trend towards lower abundance”. For the same sequence, the “abundance of Alloprevotella in the colon” value ([6]; HD5 p<0.02) was “no influence”, the “relative abundance of Bifidobacteriaceae in the small intestine” value ([6]; hBD2 p<0.0001) was “dramatically and statistically significant increased” and the “relative abundance of Bifidobacteriaceae in the colon” value ([6]; p<0.04) was “dramatically and statistically significant increased”.

— patent US11413328B2, “Methods for treating inflammatory conditions of the lungs” (priority 2016, dated 2022)
